Experimental data reported in US20040077591A1, “Histone deacetylase inhibitors for the treatment of multiple sclerosis, amyotrophic lateral sclerosis and Alzheimer's Disease” (The Brigham and Women's Hospital, Inc., priority 2002, published 2004).

How the values were obtained:
EAE mice spinal cords = assay: DNA microarray analysis of EAE mice spinal cords; assay type: in vivo
Text: (§1) (2) Modulation of genes involved in neuroprotection and immune regulation by TSA. a) Microarrays detect protective genes regulated by TSA in EAE mice spinal cords. The inventor pooled RNA from tissues of three animals in each group (TSA treated and vehicle-treated) for DNA microarray analysis. As shown (Table 3), intraperitoneal TSA led to the enhanced expression of mRNAs for the antioxidant glutathione peroxidase (Gpx1) and the neuroprotective insulin-like growth factor 2 (Igf2). […] Intraperitoneal TSA also led to decreased expression in EAE spinal cords of the chemokine receptor CCR6, immunoglobulin V(H)II, the vascular homeostasis-related phospholipase A2, and upregulation of the immunomodulatory factor interferon-α2 (Ifna2), the latter with known beneficial effects in MS patients.
(§2) Microarrays detect protective genes co-regulated by TSA in EAE mice spinal cords and spleens.

EAE mice spleens = assay: DNA microarray analysis of EAE mice spleens; assay type: in vivo
Text: as §1
b) Microarrays detect protective genes regulated by TSA in EAE mice spleens. The inventor had previously shown that HDAC mRNAs are elevated in immune cells after stimulation with mitogens or α-CD3 Ab (Dangond et al., 1998) and that HDAC inhibitors block proliferation (Dangond and Gullans, 1998). HDAC inhibition also downregulates pro-inflammatory molecules, including γ-IFN (Dangond and Gullans, 1998), IL-12 (Saemann et al., 2000), IL-12 receptor (Saemann et al., 2000), B7-1 (Bohmig et al., 1997) and TNF-α (Nancey et al., 2002). […] A known histone deacetylase-binding chaperone, 14-3-3 sigma, is also elevated in spleens.
as §2

CNS tissue from EAE mice = assay: Quantitative RT-PCR on CNS tissue of EAE mice; assay type: in vivo
Method: (§3) FIG. 8—Identification of gene expression changes induced by HDAC inhibitors in vivo, using reverse transcriptase polymerase chain reaction (RT-PCR). CNS and spleen tissue samples from EAE mice were used to isolate RNA. One step real time quantitative RT-PCR (QRT-PCR) was then performed in triplicate for each sample (n=3 per group of mice) with SYBR Green and an ABI Prism 7700 Sequence Detection System (PE Applied Biosystems, Foster City, Calif.).
(§4) d) Quantitative RT-PCR (QRT-PCR) on CNS and spleen tissues from TSA-treated EAE mice detects numerous genes modulated by this HDAC inhibitor. […] QRT-PCR unveiled new CNS effects of TSA (FIG. 8), including upregulation of the neuronal trait genes sodium channel Nav1.2 and dopamine β hydroxylase (Dbh), and downregulation of the pro-apoptotic factors caspase 2 (casp2) and apoptosis inducing factor (Aif). In spleen tissues, QRT-PCR confirmed elevation of Ifna7 and Adipsin and downregulation of Igκ V22 mRNAs, and unveiled downregulation by TSA of multiple inflammatory factors, such as IL-8 receptor, IL-2 receptor, IL-12, and the costimulatory molecule CD28, from pathways implicated in MS (Glabinsk and Ransohoff, 2001; Dangond, 2002).

[1] = tested on: spleen tissue from EAE mice; assay: Quantitative RT-PCR on spleen tissue of EAE mice; assay type: in vivo; details: TSA-treated EAE mice
Method: as §3, §4

ras transformed cells = details: cited from earlier work

## CC(/C=C/C(=O)NO)=C\[C@@H](C)C(=O)c1ccc(N(C)C)cc1 [TSA, Trichostatin A]
EAE mice spinal cords; Table 5, probe set AB010557, i.p. TSA, EAE mice spinal cord
  Fold Δ CNS, Paired box gene 4 (Pax4): −12.5 fold
EAE mice spinal cords; Table 5, probe set AF009011, i.p. TSA, EAE mice spinal cord
  Fold Δ CNS, Axin: 4.9 fold
EAE mice spinal cords; Table 5, probe set AF036008, i.p. TSA, EAE mice spinal cord
  Fold Δ CNS, DNA methyltransferase (Dnmt1): −8.8 fold
EAE mice spinal cords; Table 5, probe set AV108173, i.p. TSA, EAE mice spinal cord
  Fold Δ CNS, Metaxin homolog: −11.6 fold
EAE mice spinal cords; Table 5, probe set D10849, i.p. TSA, EAE mice spinal cord
  Fold Δ CNS, Thromboxane A2 receptor (Tbxa2r): −5.2 fold
EAE mice spinal cords; Table 5, probe set L06444, i.p. TSA, EAE mice spinal cord
  Fold Δ CNS, Growth differentiation factor (Gdf9): 3.5 fold
EAE mice spinal cords; Table 5, probe set M35131, i.p. TSA, EAE mice spinal cord
  Fold Δ CNS, Neurofilament heavy (Nefh): 2.3 fold
EAE mice spinal cords; Table 5, probe set M95604, i.p. TSA, EAE mice spinal cord
  Fold Δ CNS, Snail homolog 1 (Snail1): 5.3 fold
EAE mice spinal cords; Table 5, probe set U24160, i.p. TSA, EAE mice spinal cord
  Fold Δ CNS, Dishevelled 2 (Dvl2): −2.1 fold
EAE mice spinal cords; Table 5, probe set U58974, i.p. TSA, EAE mice spinal cord
  Fold Δ CNS, Rearranged in lymphoma (Frat1): 4.5 fold
EAE mice spinal cords; Table 5, probe set U62386, i.p. TSA, EAE mice spinal cord
  Fold Δ CNS, Immunoglobulin H and L variable: −2.1 fold
EAE mice spinal cords; Table 5, probe set U70017, i.p. TSA, EAE mice spinal cord
  Fold Δ CNS, Cyclin D-interacting Dmp1 (Dmtf1): 5.4 fold
EAE mice spinal cords; Table 5, probe set U77967, i.p. TSA, EAE mice spinal cord
  Fold Δ CNS, Neuronal PAS domain 1 (Npas1): 2 fold
EAE mice spinal cords; Table 5, probe set U85714, i.p. TSA, EAE mice spinal cord
  Fold Δ CNS, Phospholipase C-beta-1b (Picb1): 3.4 fold
EAE mice spinal cords; Table 5, probe set X03920, i.p. TSA, EAE mice spinal cord
  Fold Δ CNS, Glutathione peroxidase (Gpx1): 3 fold
EAE mice spinal cords; Table 5, probe set X16678, i.p. TSA, EAE mice spinal cord
  Fold Δ CNS, Immunoglobulin kappa chain (1gk-V20): −3.3 fold
EAE mice spinal cords; Table 5, probe set X55781, i.p. TSA, EAE mice spinal cord
  Fold Δ CNS, Paired box gene 2 (Pax2): 7.1 fold
EAE mice spinal cords; Table 5, probe set Y07609, i.p. TSA, EAE mice spinal cord
  Fold Δ CNS, Max binding protein ROX (Mnt): −2.2 fold
EAE mice spinal cords; probe set 92500, spinal cord, I.P. TSA vs vehicle-treated EAE mice
  Fold Change, Ten-m3: −5.4 fold
EAE mice spinal cords; probe set 92782, spinal cord, I.P. TSA vs vehicle-treated EAE mice
  Fold Change, Thymopoietin (Tmpo): −6.4 fold
EAE mice spinal cords; probe set 92833, spinal cord, I.P. TSA vs vehicle-treated EAE mice
  Fold Change, Histidine ammonia lyase (Ha): 5.3 fold
EAE mice spinal cords; probe set 93275, spinal cord, I.P. TSA vs vehicle-treated EAE mice
  Fold Change, SH3 domain protein 2B: 4.5 fold
EAE mice spinal cords; probe set 93378, spinal cord, I.P. TSA vs vehicle-treated EAE mice
  Fold Change, Hox-3.1: −5.3 fold
EAE mice spinal cords; probe set 94521, spinal cord, I.P. TSA vs vehicle-treated EAE mice
  Fold Change, Cdk inhibitor p19: −5.3 fold
EAE mice spinal cords; probe set 94717, spinal cord, I.P. TSA vs vehicle-treated EAE mice
  Fold Change, IFN-alpha-2 (1fna2): 5.6 fold
EAE mice spinal cords; probe set 97540, spinal cord, I.P. TSA vs vehicle-treated EAE mice
  Fold Change, Histocompatibility 2 D region locus 1: 7.4 fold
EAE mice spinal cords; probe set 97680, spinal cord, I.P. TSA vs vehicle-treated EAE mice
  Fold Change, Murinoglobulin (Mug): −7.2 fold
EAE mice spinal cords; probe set 97970, spinal cord, I.P. TSA vs vehicle-treated EAE mice
  Fold Change, Transferrin-like p97: −5.7 fold
EAE mice spinal cords; probe set 98623, spinal cord, I.P. TSA vs vehicle-treated EAE mice
  Fold Change, Insulin-like growth factor 2 (1gf2): 5.2 fold
EAE mice spinal cords; probe set 99326, spinal cord, I.P. TSA vs vehicle-treated EAE mice
  Fold Change, Phospholipase A2 (Pla2): −6.4 fold
EAE mice spinal cords; probe set 99899, spinal cord, I.P. TSA vs vehicle-treated EAE mice
  Fold Change, CCR6: −7.3 fold
EAE mice spinal cords; probe set 100362, spinal cord, I.P. TSA vs vehicle-treated EAE mice
  Fold Change, Ig V(H)II: −4.9 fold
EAE mice spinal cords; probe set 101676, spinal cord, I.P. TSA vs vehicle-treated EAE mice
  Fold Change, Glutathione peroxidase (Gpx1): 6.9 fold
EAE mice spinal cords; probe set 104364, spinal cord, I.P. TSA vs vehicle-treated EAE mice
  Fold Change, Mapkapk5: −6.5 fold
EAE mice spleens; Table 5, probe set AB010557, i.p. TSA, EAE mice spleen
  Fold Δ Spleen, Paired box gene 4 (Pax4): −2.4 fold
EAE mice spleens; Table 5, probe set AF009011, i.p. TSA, EAE mice spleen
  Fold Δ Spleen, Axin: 2.1 fold
EAE mice spleens; Table 5, probe set AF036008, i.p. TSA, EAE mice spleen
  Fold Δ Spleen, DNA methyltransferase (Dnmt1): −3.2 fold
EAE mice spleens; Table 5, probe set AV108173, i.p. TSA, EAE mice spleen
  Fold Δ Spleen, Metaxin homolog: −4 fold
EAE mice spleens; Table 5, probe set D10849, i.p. TSA, EAE mice spleen
  Fold Δ Spleen, Thromboxane A2 receptor (Tbxa2r): −4.9 fold
EAE mice spleens; Table 5, probe set L06444, i.p. TSA, EAE mice spleen
  Fold Δ Spleen, Growth differentiation factor (Gdf9): 5.4 fold
EAE mice spleens; Table 5, probe set M35131, i.p. TSA, EAE mice spleen
  Fold Δ Spleen, Neurofilament heavy (Nefh): 2.2 fold
EAE mice spleens; Table 5, probe set M95604, i.p. TSA, EAE mice spleen
  Fold Δ Spleen, Snail homolog 1 (Snail1): 2.9 fold
EAE mice spleens; Table 5, probe set U24160, i.p. TSA, EAE mice spleen
  Fold Δ Spleen, Dishevelled 2 (Dvl2): −3.6 fold
EAE mice spleens; Table 5, probe set U58974, i.p. TSA, EAE mice spleen
  Fold Δ Spleen, Rearranged in lymphoma (Frat1): 5.4 fold
EAE mice spleens; Table 5, probe set U62386, i.p. TSA, EAE mice spleen
  Fold Δ Spleen, Immunoglobulin H and L variable: −2.5 fold
EAE mice spleens; Table 5, probe set U70017, i.p. TSA, EAE mice spleen
  Fold Δ Spleen, Cyclin D-interacting Dmp1 (Dmtf1): 5.2 fold
EAE mice spleens; Table 5, probe set U77967, i.p. TSA, EAE mice spleen
  Fold Δ Spleen, Neuronal PAS domain 1 (Npas1): −3.5 fold
EAE mice spleens; Table 5, probe set U85714, i.p. TSA, EAE mice spleen
  Fold Δ Spleen, Phospholipase C-beta-1b (Picb1): 3.7 fold
EAE mice spleens; Table 5, probe set X03920, i.p. TSA, EAE mice spleen
  Fold Δ Spleen, Glutathione peroxidase (Gpx1): 2.3 fold
EAE mice spleens; Table 5, probe set X16678, i.p. TSA, EAE mice spleen
  Fold Δ Spleen, Immunoglobulin kappa chain (1gk-V20): −2.3 fold
EAE mice spleens; Table 5, probe set X55781, i.p. TSA, EAE mice spleen
  Fold Δ Spleen, Paired box gene 2 (Pax2): 2.1 fold
EAE mice spleens; Table 5, probe set Y07609, i.p. TSA, EAE mice spleen
  Fold Δ Spleen, Max binding protein ROX (Mnt): −3.5 fold
EAE mice spleens; probe set 96704, spleen, I.P. TSA vs vehicle-treated EAE mice
  Fold Change, 14-3-3 sigma: 3.9 fold
EAE mice spleens; probe set 96719, spleen, I.P. TSA vs vehicle-treated EAE mice
  Fold Change, Parvalbumin (Pva): 6.3 fold
EAE mice spleens; probe set 96970, spleen, I.P. TSA vs vehicle-treated EAE mice
  Fold Change, IgH variable: −3.9 fold
EAE mice spleens; probe set 97570, spleen, I.P. TSA vs vehicle-treated EAE mice
  Fold Change, Igκ-V22: −4.4 fold
EAE mice spleens; probe set 99420, spleen, I.P. TSA vs vehicle-treated EAE mice
  Fold Change, IgA VDJH: −2.8 fold
EAE mice spleens; probe set 99671, spleen, I.P. TSA vs vehicle-treated EAE mice
  Fold Change, Adipsin (Adn): 9.0 fold
EAE mice spleens; probe set 99837, spleen, I.P. TSA vs vehicle-treated EAE mice
  Fold Change, Galanin receptor 1 (Galr1): −4.2 fold
EAE mice spleens; probe set 99850, spleen, I.P. TSA vs vehicle-treated EAE mice
  Fold Change, IgE H constant: −3.1 fold
EAE mice spleens; probe set 100060, spleen, I.P. TSA vs vehicle-treated EAE mice
  Fold Change, Kallikrein (Klk): 2.8 fold
EAE mice spleens; probe set 101115, spleen, I.P. TSA vs vehicle-treated EAE mice
  Fold Change, Lactotransferrin (Ltf): −8.2 fold
EAE mice spleens; probe set 101616, spleen, I.P. TSA vs vehicle-treated EAE mice
  Fold Change, IgG rearranged κ: −4.5 fold
EAE mice spleens; probe set 101752, spleen, I.P. TSA vs vehicle-treated EAE mice
  Fold Change, IgG variable: −8.2 fold
EAE mice spleens; probe set 101826, spleen, I.P. TSA vs vehicle-treated EAE mice
  Fold Change, V kappa and J kappa coding joint: −4.2 fold
EAE mice spleens; probe set 101870, spleen, I.P. TSA vs vehicle-treated EAE mice
  Fold Change, γ-1 Ig Constant: −5.0 fold
EAE mice spleens; probe set 102149, spleen, I.P. TSA vs vehicle-treated EAE mice
  Fold Change, Interferon alpha 7 (Ifna7): 5.8 fold
EAE mice spleens; probe set 102843, spleen, I.P. TSA vs vehicle-treated EAE mice
  Fold Change, IgH gene DJC: −3.6 fold
EAE mice spleens; probe set 103830, spleen, I.P. TSA vs vehicle-treated EAE mice
  Fold Change, Snail homolog: 3.0 fold
CNS tissue from EAE mice; CNS and spleen samples, vs vehicle-treated EAE animals, n=3 per group
  fold change of key genes altered, QRT-PCR: > 1.5 fold
CNS tissue from EAE mice; CNS, TSA-treated EAE mice
  Gpx1 mRNA by QRT-PCR: elevated
  Ifna2 mRNA by QRT-PCR: elevated
  Mug mRNA by QRT-PCR: downregulated
  Tmpo mRNA by QRT-PCR: downregulated
  apoptosis inducing factor (Aif) mRNA by QRT-PCR: downregulation
  caspase 2 (casp2) mRNA by QRT-PCR: downregulation
  dopamine β hydroxylase (Dbh) mRNA by QRT-PCR: upregulation
  sodium channel Nav1.2 mRNA by QRT-PCR: upregulation
  thromboxane A2 receptor (Tbxa2r) mRNA by QRT-PCR: downregulated
[1]
  Adipsin mRNA by QRT-PCR: elevation
  CD28 mRNA by QRT-PCR: downregulation
  IL-2 receptor mRNA by QRT-PCR: downregulation
  IL-8 receptor mRNA by QRT-PCR: downregulation
  IL-12 mRNA by QRT-PCR: downregulation
  Ifna7 mRNA by QRT-PCR: elevation
  Igκ V22 mRNA by QRT-PCR: downregulation
Ras transformed cells
  hyperacetylation: induce hyperacetylation
  morphology of ras transformed cells: reversion of ras transformed cells to normal morphology
